From ChEMBL document CHEMBL3045543, “Predictions and correlations of structure activity relationship of some aminoantipyrine derivatives on the basis of theoretical and experimental ground” (Med Chem Res, 2012)
≈ marks a conversion by molar mass, not a printed value.

Tests used:
Mus musculus = species: Mus musculus; test: Toxicity in Mus musculus (mouse) assessed as irritation; format: organism-based; conditions: in vivo
Escherichia coli [1] = test: Antibacterial activity against Escherichia coli at 100 ug/ml by agar cup-plate method; format: functional; conditions: read-out: IZ
Pseudomonas [2] = test: Antibacterial activity against […] at 100 ug/ml by agar cup-plate method; format: functional; conditions: read-out: IZ
Pseudomonas aeruginosa [3] = test: Antibacterial activity against Pseudomonas aeruginosa at 100 ug/ml by agar cup-plate method; format: functional; conditions: read-out: IZ
Staphylococcus aureus [4] = test: Antibacterial activity against Staphylococcus aureus at 100 ug/ml by agar cup-plate method; format: functional; conditions: read-out: IZ
Pseudomonas [5] = test: Antibacterial activity against […] after 24 hr by broth dilution method; format: functional
Escherichia coli [6] = test: Antibacterial activity against Escherichia coli after 24 hr by broth dilution method; format: functional
Staphylococcus aureus [7] = test: Antibacterial activity against Staphylococcus aureus after 24 hr by broth dilution method; format: functional
Pseudomonas aeruginosa [8] = test: Antibacterial activity against Pseudomonas aeruginosa after 24 hr by broth dilution method; format: functional

| Structure (SMILES) | Activity (Mus musculus) | zone of inhibition at 100 µg/mL (Escherichia coli [1]) [mm] | zone of inhibition at 100 µg/mL (Pseudomonas [2]) [mm] | zone of inhibition at 100 µg/mL (Pseudomonas aeruginosa [3]) [mm] | zone of inhibition at 100 µg/mL (Staphylococcus aureus [4]) [mm] | MIC (Pseudomonas [5]) [µg/mL] | MIC (Escherichia coli [6]) [µg/mL] | MIC (Staphylococcus aureus [7]) [µg/mL] | MIC (Pseudomonas aeruginosa [8]) [µg/mL] |
| --- | --- | --- | --- | --- | --- | --- | --- | --- | --- |
| Cc1c(/N=C/c2ccc(O)cc2)c(=O)n(-c2ccccc2)n1C | Non-toxic | 5 | < 5 | 5 | 10 |  |  |  |  |
| Cc1c(/N=C/c2ccccc2O)c(=O)n(-c2ccccc2)n1C | Non-toxic | > 15 | > 15 | 10 | > 15 | 75 (≈ 244 µM) | 75 (≈ 244 µM) | 50 (≈ 163 µM) | 100 (≈ 325 µM) |
| [H]/N=C(/N)N[C@H]1[C@H](O)[C@@H](O)[C@H](O[C@@H]2O[C@@H](C)[C@](O)(C=O)[C@H]2O[C@@H]2O[C@@H](CO)[C@H](O)[C@@H](O)[C@@H]2NC)[C@@H](N/C(N)=N\[H])[C@@H]1O [STREPTOMYCIN] | Non-toxic | > 15 | > 15 | > 15 | > 15 |  |  |  |  |
| Cc1c(/N=C/c2ccccc2[N+](=O)[O-])c(=O)n(-c2ccccc2)n1C | Non-toxic | < 5 | < 5 | 5 | 10 |  |  |  |  |
| Cc1c(/N=C/c2ccc(Cl)cc2)c(=O)n(-c2ccccc2)n1C | Non-toxic | < 5 | < 5 | 5 | 10 |  |  |  |  |
| Cc1c(/N=C/c2ccccc2Cl)c(=O)n(-c2ccccc2)n1C | Non-toxic | > 15 | > 15 | > 15 | > 15 | 100 (≈ 307 µM) | 100 (≈ 307 µM) | 75 (≈ 230 µM) | 100 (≈ 307 µM) |
| Cc1c(/N=C/c2ccco2)c(=O)n(-c2ccccc2)n1C | Non-toxic | > 15 | > 15 | > 15 | > 15 | 75 (≈ 267 µM) | 75 (≈ 267 µM) | 50 (≈ 178 µM) | 75 (≈ 267 µM) |
| COc1ccc(/C=N/c2c(C)n(C)n(-c3ccccc3)c2=O)cc1 | Non-toxic | 5 | 10 | < 5 | 5 |  |  |  |  |
| CC1(C)S[C@@H]2[C@H](NC(=O)[C@H](N)c3ccccc3)C(=O)N2[C@H]1C(=O)O [AMPICILLIN] | Non-toxic | 10 | 10 | > 15 | > 15 | 25 (≈ 71.5 µM) | 25 (≈ 71.5 µM) | 25 (≈ 71.5 µM) | 25 (≈ 71.5 µM) |
| Cc1c(/N=C/c2ccccc2)c(=O)n(-c2ccccc2)n1C | Non-toxic | < 5 | 10 | < 5 | > 15 |  |  |  |  |
| Cc1c(/N=C/c2cccc([N+](=O)[O-])c2)c(=O)n(-c2ccccc2)n1C | Non-toxic | 5 | < 5 | < 5 | 5 |  |  |  |  |
